Values of other authors, collected in US20130289102A1, “AMYRIS ALCOHOL AND ITS ESTER FOR TREATING ACNE” (Trinity Laboratories, Inc., priority 2010, published 2013).

Legend:
estrogenic activity = conditions: among the known phytoestrogens
[1] = tested on: UVB-induced pigmented skins
[2] = tested on: superoxide anion production; conditions: 0.33 μg/ml to 33.3 μg/ml
cyclooxygenase = conditions: 6.25 μg/ml, with respect to the control
human estrogen receptor = biological target: T1, human estrogen receptor (Homo sapiens, UniProt P03372)
T1 sequence (P03372 1-595): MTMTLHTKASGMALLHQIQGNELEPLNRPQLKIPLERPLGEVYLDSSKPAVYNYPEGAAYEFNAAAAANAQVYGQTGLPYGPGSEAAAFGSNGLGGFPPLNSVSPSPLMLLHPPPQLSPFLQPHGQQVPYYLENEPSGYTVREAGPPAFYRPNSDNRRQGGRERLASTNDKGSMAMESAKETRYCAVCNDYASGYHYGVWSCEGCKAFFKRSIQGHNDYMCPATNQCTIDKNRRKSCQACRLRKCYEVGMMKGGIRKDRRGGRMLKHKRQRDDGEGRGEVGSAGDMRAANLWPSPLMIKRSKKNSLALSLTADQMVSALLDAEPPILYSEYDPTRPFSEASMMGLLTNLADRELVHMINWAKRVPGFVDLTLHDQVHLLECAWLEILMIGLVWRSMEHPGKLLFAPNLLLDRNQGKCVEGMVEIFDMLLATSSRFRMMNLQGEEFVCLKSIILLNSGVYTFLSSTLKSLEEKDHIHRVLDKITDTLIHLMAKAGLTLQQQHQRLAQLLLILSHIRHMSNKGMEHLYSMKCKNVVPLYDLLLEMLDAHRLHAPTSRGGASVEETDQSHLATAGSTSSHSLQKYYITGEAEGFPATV

creatine kinase activity = conditions: rat uterus, epiphyseal cartilage, diaphyseal bone, aorta, left ventricle of the heart
[3] = mouse, in vivo, po
[4] = up to 292 mg/kg over 1 to 3 months
[5] = tested on: porcine brain microvascular endothelial cells; conditions: 50-100 microM
[6] = tested on: human umbilical vein endothelial cells (HUVEC)
[7] = tested on: extracellular signal-regulated kinase (ERK) 1/2; conditions: 100 microM
angiogenesis = conditions: mice
[8] = biological target: T2, nicotinic ACh receptor channel (Mus musculus, UniProt P02716+P04756+P09690+P20782)
T2 construct: the nicotinic acetylcholine receptor channel in mouse skeletal muscles; host or cells: mouse skeletal muscle

Na^+, K(+)-ATPase = conditions: compared with other phosphatases examined
[9] = biological target: presynaptic omega-agatoxin IVA-sensitive (P/Q-type) Ca^2+ channel (Rattus norvegicus, UniProt P54282)
neurogenic inflammation = conditions: following electrical stimulation of rat trigeminal ganglion
[10] = tested on: post-ischemic brain injury; conditions: focal ischemia in rats

T2 sequence (P04756 21-457): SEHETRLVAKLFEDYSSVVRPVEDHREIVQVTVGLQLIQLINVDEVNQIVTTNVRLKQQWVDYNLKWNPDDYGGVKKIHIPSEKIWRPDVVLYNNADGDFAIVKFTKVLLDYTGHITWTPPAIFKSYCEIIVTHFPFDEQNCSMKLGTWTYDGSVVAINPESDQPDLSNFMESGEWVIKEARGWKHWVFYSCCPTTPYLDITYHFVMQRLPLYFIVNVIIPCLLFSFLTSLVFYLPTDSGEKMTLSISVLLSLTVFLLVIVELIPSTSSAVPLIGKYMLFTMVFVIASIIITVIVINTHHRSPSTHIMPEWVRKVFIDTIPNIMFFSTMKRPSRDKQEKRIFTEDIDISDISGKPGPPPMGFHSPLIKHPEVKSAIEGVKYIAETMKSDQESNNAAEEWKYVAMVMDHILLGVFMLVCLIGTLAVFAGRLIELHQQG
T2 sequence (P09690 24-501): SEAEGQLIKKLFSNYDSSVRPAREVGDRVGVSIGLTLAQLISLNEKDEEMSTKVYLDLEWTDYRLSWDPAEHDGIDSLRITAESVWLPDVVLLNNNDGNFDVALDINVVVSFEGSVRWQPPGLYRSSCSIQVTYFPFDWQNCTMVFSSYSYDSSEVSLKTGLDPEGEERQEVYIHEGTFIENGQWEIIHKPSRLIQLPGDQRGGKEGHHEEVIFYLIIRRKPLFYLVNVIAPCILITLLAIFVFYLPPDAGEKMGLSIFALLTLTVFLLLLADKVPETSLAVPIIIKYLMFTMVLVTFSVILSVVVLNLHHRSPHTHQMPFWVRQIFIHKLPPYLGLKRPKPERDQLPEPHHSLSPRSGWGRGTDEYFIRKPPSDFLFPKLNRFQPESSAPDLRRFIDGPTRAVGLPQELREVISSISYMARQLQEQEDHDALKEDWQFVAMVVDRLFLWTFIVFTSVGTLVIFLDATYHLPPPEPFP
T2 sequence (P02716 25-520): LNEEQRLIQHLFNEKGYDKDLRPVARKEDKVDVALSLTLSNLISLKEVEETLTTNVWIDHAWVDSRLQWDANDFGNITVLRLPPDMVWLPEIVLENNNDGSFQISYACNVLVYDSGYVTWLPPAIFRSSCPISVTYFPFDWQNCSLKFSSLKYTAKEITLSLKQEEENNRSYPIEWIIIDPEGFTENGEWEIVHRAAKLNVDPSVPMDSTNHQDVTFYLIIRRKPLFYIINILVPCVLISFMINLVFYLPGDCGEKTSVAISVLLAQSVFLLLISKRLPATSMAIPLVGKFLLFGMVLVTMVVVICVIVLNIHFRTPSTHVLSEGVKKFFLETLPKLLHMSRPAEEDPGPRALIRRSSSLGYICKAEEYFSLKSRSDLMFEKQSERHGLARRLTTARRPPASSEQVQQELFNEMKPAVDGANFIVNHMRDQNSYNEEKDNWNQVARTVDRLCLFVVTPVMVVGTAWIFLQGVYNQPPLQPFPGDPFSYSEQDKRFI
T2 sequence (P20782 21-493): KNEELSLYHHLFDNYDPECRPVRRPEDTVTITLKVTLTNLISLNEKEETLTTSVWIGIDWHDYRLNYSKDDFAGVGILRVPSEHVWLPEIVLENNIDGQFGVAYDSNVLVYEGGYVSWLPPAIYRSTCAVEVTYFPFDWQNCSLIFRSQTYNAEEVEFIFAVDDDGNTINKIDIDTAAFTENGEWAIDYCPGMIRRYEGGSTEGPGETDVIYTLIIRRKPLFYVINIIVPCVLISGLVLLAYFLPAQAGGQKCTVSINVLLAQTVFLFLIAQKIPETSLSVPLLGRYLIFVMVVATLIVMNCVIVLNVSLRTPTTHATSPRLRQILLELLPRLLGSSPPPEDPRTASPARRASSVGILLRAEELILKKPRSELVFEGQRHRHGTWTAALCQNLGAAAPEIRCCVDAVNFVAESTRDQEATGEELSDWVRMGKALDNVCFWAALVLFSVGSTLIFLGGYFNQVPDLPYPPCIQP
presynaptic omega-agatoxin IVA-sensitive (P/Q-type) Ca^2+ channel, sequence (P54282 whole entry): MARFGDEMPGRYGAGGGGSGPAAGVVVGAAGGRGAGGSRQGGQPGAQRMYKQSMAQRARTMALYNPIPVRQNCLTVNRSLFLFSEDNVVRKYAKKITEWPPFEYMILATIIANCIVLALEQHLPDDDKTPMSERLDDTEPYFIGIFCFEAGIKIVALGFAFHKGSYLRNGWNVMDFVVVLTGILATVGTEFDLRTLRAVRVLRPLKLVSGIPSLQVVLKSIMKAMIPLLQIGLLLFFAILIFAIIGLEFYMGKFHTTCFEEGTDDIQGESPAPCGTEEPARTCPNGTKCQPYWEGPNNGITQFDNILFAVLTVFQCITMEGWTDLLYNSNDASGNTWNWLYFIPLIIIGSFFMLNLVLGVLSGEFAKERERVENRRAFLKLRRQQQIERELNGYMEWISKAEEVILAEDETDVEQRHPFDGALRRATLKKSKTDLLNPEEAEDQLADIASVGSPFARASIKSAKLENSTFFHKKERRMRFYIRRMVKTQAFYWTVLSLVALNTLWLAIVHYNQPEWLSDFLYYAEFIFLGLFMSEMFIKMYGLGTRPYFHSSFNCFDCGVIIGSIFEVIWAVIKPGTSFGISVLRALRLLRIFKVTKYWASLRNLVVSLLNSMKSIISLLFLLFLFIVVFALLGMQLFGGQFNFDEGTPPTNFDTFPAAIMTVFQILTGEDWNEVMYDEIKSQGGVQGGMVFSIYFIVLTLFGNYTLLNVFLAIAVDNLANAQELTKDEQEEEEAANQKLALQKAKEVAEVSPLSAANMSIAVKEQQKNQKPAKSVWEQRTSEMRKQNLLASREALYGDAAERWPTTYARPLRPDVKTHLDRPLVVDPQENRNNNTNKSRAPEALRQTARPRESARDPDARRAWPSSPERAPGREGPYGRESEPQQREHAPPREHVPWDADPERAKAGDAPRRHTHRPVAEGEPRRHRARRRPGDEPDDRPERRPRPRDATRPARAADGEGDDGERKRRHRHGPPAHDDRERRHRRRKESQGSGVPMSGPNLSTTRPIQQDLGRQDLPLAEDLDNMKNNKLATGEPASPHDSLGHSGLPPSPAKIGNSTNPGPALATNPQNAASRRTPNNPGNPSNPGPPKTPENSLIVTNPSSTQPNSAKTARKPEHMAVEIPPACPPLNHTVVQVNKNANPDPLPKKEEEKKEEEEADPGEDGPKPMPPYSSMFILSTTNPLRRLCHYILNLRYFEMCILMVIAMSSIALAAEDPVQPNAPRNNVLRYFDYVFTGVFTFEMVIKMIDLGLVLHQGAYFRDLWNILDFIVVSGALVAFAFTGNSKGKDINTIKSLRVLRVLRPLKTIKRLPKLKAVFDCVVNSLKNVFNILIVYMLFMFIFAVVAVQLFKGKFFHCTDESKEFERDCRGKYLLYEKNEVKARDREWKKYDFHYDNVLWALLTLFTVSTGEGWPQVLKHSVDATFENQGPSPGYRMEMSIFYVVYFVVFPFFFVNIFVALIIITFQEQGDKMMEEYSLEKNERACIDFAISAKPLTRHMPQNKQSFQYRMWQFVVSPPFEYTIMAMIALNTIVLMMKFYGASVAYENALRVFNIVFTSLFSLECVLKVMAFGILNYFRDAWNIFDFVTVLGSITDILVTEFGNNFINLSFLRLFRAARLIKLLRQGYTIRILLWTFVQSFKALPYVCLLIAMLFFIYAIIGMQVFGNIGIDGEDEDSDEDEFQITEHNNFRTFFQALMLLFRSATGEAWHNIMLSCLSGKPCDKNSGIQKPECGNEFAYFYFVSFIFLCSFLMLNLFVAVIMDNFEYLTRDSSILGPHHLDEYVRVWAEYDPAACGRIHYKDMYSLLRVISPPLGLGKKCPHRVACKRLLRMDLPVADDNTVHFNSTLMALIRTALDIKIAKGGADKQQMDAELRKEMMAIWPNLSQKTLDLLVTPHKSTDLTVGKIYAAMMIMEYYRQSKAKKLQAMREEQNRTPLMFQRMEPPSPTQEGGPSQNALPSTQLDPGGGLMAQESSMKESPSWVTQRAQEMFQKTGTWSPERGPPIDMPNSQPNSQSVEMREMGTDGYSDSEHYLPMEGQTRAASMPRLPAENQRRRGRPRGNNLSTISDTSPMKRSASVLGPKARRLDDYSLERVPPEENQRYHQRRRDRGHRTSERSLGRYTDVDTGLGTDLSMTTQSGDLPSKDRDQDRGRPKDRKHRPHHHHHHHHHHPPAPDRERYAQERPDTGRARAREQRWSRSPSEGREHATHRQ

## CC1(C)[C@H]2C(=COc3cc(O)ccc32)[C@]2(O)C(=O)C[C@]3(O)C[C@H]1[C@H]2[C@H]3O [Miroestrol]
Estrogenic activity
  estrogenic activity: highest estrogenic activity among the known phytoestrogens

## CC1(C)C=Cc2c(ccc3c2OC[C@@H](c2ccc(O)cc2O)C3)O1 [glabridin, Glabridin]
[1]; 0.5% solution, topical, backs of brownish guinea pigs
  pigmentation induced by UVB radiation: significantly reduced pigmentation
[1]; 0.5% solution, topical, guinea pig skin
  inflammation induced by UVB irradiation: decreased the inflammation
[1]; treated skin, epidermal histology
  DOPA-positive melanocytes: reduced in number
[2]
  superoxide (active oxygen) formation: inhibited superoxide (active oxygen) formation
cyclooxygenase
  cyclooxygenase activity: inhibited the cyclooxygenase activity
Human estrogen receptor
  binding to estrogen receptor: binding to the human estrogen receptor
Creatine kinase activity
  creatine kinase activity: stimulating creatine kinase activity
Breast tumor cells; 10 nM-10 μM, estrogen receptor-dependent
  effect on growth of breast tumor cells, low concentrations: growth-promoting effect
Breast tumor cells; >15 μM, estrogen receptor-independent
  effect on growth of breast tumor cells, high concentrations: antiproliferative activity

## C[C@@H]1CC[C@H]2[C@@H](C)C(=O)O[C@@H]3O[C@@]4(C)CC[C@@H]1[C@]32OO4 [Artemisinin]
[3]
  LD50: 4228 mg/kg

## CO[C@H]1O[C@@H]2O[C@@]3(C)CC[C@H]4[C@H](C)CC[C@@H]([C@H]1C)[C@@]24OO3 [artemether]
[4]
  toxicity in monkeys: no toxicity

## CC1(C)[C@H]2C(=COc3cc(O)ccc32)[C@@H]2C(=O)C[C@]3(O)C[C@H]1[C@H]2[C@H]3O [Deoxymiroestrol]
Estrogenic activity
  estrogenic activity: highest estrogenic activity among the known phytoestrogens

## C=C1CCC[C@]2(C)CC[C@@H](C(C)(C)O)C[C@@H]12 [β-eudesmol]
PC-12 cells; 100 and 150 μM
  neurite extension: significantly induced neurite extension
PC-12 cells; at the highest concentration (150 μM)
  [3H]thymidine incorporation: suppression of [^3H]thymidine incorporation
[5]
  proliferation of porcine brain microvascular endothelial cells: inhibited
[6]
  HUVEC migration stimulated by bFGF: inhibited the HUVEC migration
  tube formation by HUVEC in Matrigel: inhibited
[6]; 50-100 microM
  proliferation of HUVEC: inhibited
[7]
  phosphorylation of ERK 1/2 induced by bFGF or vascular endothelial growth factor: blocked the phosphorylation
angiogenesis
  angiogenesis in adjuvant-induced granuloma: significantly inhibited angiogenesis
  angiogenesis in subcutaneously implanted Matrigel plugs: significantly inhibited angiogenesis
[8]
  desensitization of the nicotinic ACh receptor: accelerated the desensitization
[8]; mouse skeletal muscles
  nicotinic ACh receptor channel block: blocked the nicotinic ACh receptor channel in both the open and closed conformations
Na^+, K(+)-ATPase
  inhibition of Na+,K+-ATPase activity: most strongly among the various kinds of phosphatases examined

## CC1=CCC[C@]2(C)CC[C@@H](C(C)(C)O)C[C@@H]12 [α-eudesmol]
[9]
  inhibition of P/Q-type Ca2+ channel: potently inhibits
Neurogenic inflammation
  inhibition of neurogenic inflammation: potently inhibits
[10]
  post-ischemic brain injury: attenuates post-ischemic brain injury
